Test system: MV-4-11 cells
Assay: Gene expression microarray analysis (Affymetrix PrimeView) and GSEA
Format: cell-based, human
Design: RFU PODN (11730768_x_at) / Fold change /veh PODN (11730768_x_at) / RFU LINC00158 (11744669_a_at) / Fold change /veh LINC00158 (11744669_a_at) / RFU DUSP10 (11751237_a_at) / Fold change /veh DUSP10 (11751237_a_at) / RFU ID3 (11757404_x_at) / Fold change /veh ID3 (11757404_x_at) / RFU PLEKHG5 (11737974_s_at) / Fold change /veh PLEKHG5 (11737974_s_at) / RFU LRRC4B (11730491_at) / Fold change /veh LRRC4B (11730491_at) / RFU GIMAP4 (11747438_a_at) / Fold change /veh GIMAP4 (11747438_a_at) / RFU KRT8 (11758183_x_at) / Fold change /veh KRT8 (11758183_x_at) / RFU CNN1 (11734310_a_at) / Fold change /veh CNN1 (11734310_a_at) / RFU VPS37D (11726825_at) / Fold change /veh VPS37D (11726825_at) / RFU C10orf10 (11716522_x_at) / Fold change /veh C10orf10 (11716522_x_at) / RFU KIR2DL2 /// KIR2DL4 /// KIR2DL5A /// KIR2DL5B /// KIR2DS1 /// KIR2DS2 /// KIR2DS3 /// KIR2DS4 /// KIR3DL3 /// KIR3DL3 /// KIR3DS1 (11738374_at) / Fold change /veh KIR2DL2 /// KIR2DL4 /// KIR2DL5A /// KIR2DL5B /// KIR2DS1 /// KIR2DS2 /// KIR2DS3 /// KIR2DS4 /// KIR3DL3 /// KIR3DL3 /// KIR3DS1 (11738374_at) / RFU C1QL1 (11718748_at) / Fold change /veh C1QL1 (11718748_at) / RFU TMPRSS4 (11747572_a_at) / Fold change /veh TMPRSS4 (11747572_a_at) / RFU HAMP (11756126_x_at) / Fold change /veh HAMP (11756126_x_at) / RFU RNFT2 (11725882_a_at) / Fold change /veh RNFT2 (11725882_a_at) / RFU NR4A2 (11747474_a_at) / Fold change /veh NR4A2 (11747474_a_at) / RFU ABCC12 (11746883_a_at) / Fold change /veh ABCC12 (11746883_a_at) / RFU TMEM136 (11760407_x_at) / Fold change /veh TMEM136 (11760407_x_at) / RFU CLDN22 /// WWC2 (11732394_at) / Fold change /veh CLDN22 /// WWC2 (11732394_at) / RFU HLA-DPB1 (11760878_x_at) / Fold change /veh HLA-DPB1 (11760878_x_at) / RFU SPINT1 (11716480_a_at) / Fold change /veh SPINT1 (11716480_a_at) / RFU GAP43 (11754022_s_at) / Fold change /veh GAP43 (11754022_s_at) / RFU A4GNT (11735810_at) / Fold change /veh A4GNT (11735810_at) / RFU PRB3 (11715151_x_at) / Fold change /veh PRB3 (11715151_x_at) / RFU TUBB4B (11761932_at) / Fold change /veh TUBB4B (11761932_at) / RFU CAPN14 (11732068_a_at) / Fold change /veh CAPN14 (11732068_a_at) / RFU TMCC2 (11721928_a_at) / Fold change /veh TMCC2 (11721928_a_at) / RFU IRGQ (11745062_a_at) / Fold change /veh IRGQ (11745062_a_at) / RFU FAM174B (11720279_a_at) / Fold change /veh FAM174B (11720279_a_at) / RFU TMPRSS4 (11748680_a_at) / Fold change /veh TMPRSS4 (11748680_a_at) / RFU FAM212B (11763350_a_at) / Fold change /veh FAM212B (11763350_a_at) / RFU PLEKHG5 (11743358_a_at) / Fold change /veh PLEKHG5 (11743358_a_at) / RFU ZSCAN30 (11745921_a_at) / Fold change /veh ZSCAN30 (11745921_a_at) / RFU CMKLR1 (11741424_a_at) / Fold change /veh CMKLR1 (11741424_a_at) / RFU LOC101060620 /// MAPK8IP1 (11723275_at) / Fold change /veh LOC101060620 /// MAPK8IP1 (11723275_at) / RFU SPTSSB (11747773_x_at) / Fold change /veh SPTSSB (11747773_x_at) / RFU PRSS12 (11739890_at) / Fold change /veh PRSS12 (11739890_at) / RFU BIN1 (11741810_x_at) / Fold change /veh BIN1 (11741810_x_at) / RFU WNT11 (11732464_a_at) / Fold change /veh WNT11 (11732464_a_at) / RFU C10orf10 (11716521_a_at) / Fold change /veh C10orf10 (11716521_a_at) / RFU C5orf56 (11738089_at) / Fold change /veh C5orf56 (11738089_at) / RFU CYB561 (11721691_x_at) / Fold change /veh CYB561 (11721691_x_at) / RFU ANKRD19P (11752326_a_at) / Fold change /veh ANKRD19P (11752326_a_at) / RFU OR2T12 /// OR2T33 /// OR2T8 (11738714_s_at) / Fold change /veh OR2T12 /// OR2T33 /// OR2T8 (11738714_s_at) / RFU VCAN (11748164_a_at) / Fold change /veh VCAN (11748164_a_at) / RFU JSRP1 (11732532_at) / Fold change /veh JSRP1 (11732532_at) / RFU KRTAP10-11 (11738290_x_at) / Fold change /veh KRTAP10-11 (11738290_x_at) / RFU MYO3A (11730013_a_at) / Fold change /veh MYO3A (11730013_a_at) / RFU EBF3 (11725865_a_at) / Fold change /veh EBF3 (11725865_a_at) / RFU CAMK2N1 (11719241_x_at) / Fold change /veh CAMK2N1 (11719241_x_at) / RFU C5orf56 (11738088_a_at) / Fold change /veh C5orf56 (11738088_a_at) / RFU OLFML3 (11715873_a_at) / Fold change /veh OLFML3 (11715873_a_at) / RFU LOC100653217 /// NTM (11731650_a_at) / Fold change /veh LOC100653217 /// NTM (11731650_a_at) / RFU MAPK11 (11762145_a_at) / Fold change /veh MAPK11 (11762145_a_at) / RFU FIZ1 (11724087_x_at) / Fold change /veh FIZ1 (11724087_x_at) / RFU OASL (11726364_x_at) / Fold change /veh OASL (11726364_x_at) / RFU SOX15 (11748057_x_at) / Fold change /veh SOX15 (11748057_x_at) / RFU CD79A (11719716_a_at) / Fold change /veh CD79A (11719716_a_at) / RFU HIST1H1D (11736915_at) / Fold change /veh HIST1H1D (11736915_at) / RFU CASKIN2 (11723855_a_at) / Fold change /veh CASKIN2 (11723855_a_at) / RFU LOC730098 (11760151_x_at) / Fold change /veh LOC730098 (11760151_x_at) / RFU OR4N2 (11742367_at) / Fold change /veh OR4N2 (11742367_at) / RFU PRRT2 (11749266_a_at) / Fold change /veh PRRT2 (11749266_a_at) / RFU SNX32 (11753110_a_at) / Fold change /veh SNX32 (11753110_a_at) / RFU CDHR5 (11726645_a_at) / Fold change /veh CDHR5 (11726645_a_at) / RFU RCAN1 (11760418_a_at) / Fold change /veh RCAN1 (11760418_a_at) / RFU FAM167A (11723789_a_at) / Fold change /veh FAM167A (11723789_a_at) / RFU FAM26E (11764081_at) / Fold change /veh FAM26E (11764081_at) / RFU ISYNA1 (11749810_s_at) / Fold change /veh ISYNA1 (11749810_s_at) / RFU ACY1 (11761880_at) / Fold change /veh ACY1 (11761880_at) / RFU 11764098_at / Fold change /veh 11764098_at / RFU SAMD14 (11745864_x_at) / Fold change /veh SAMD14 (11745864_x_at) / RFU NPB (11741838_a_at) / Fold change /veh NPB (11741838_a_at) / RFU TMPRSS6 (11731388_a_at) / Fold change /veh TMPRSS6 (11731388_a_at) / RFU KRTAP10-2 (11738614_at) / Fold change /veh KRTAP10-2 (11738614_at) / RFU ARHGAP8 /// PRR5-ARHGAP8 (11727945_x_at) / Fold change /veh ARHGAP8 /// PRR5-ARHGAP8 (11727945_x_at) / RFU KRTAP5-7 /// NADSYN1 (11734609_at) / Fold change /veh KRTAP5-7 /// NADSYN1 (11734609_at) / RFU RASL12 (11751679_a_at) / Fold change /veh RASL12 (11751679_a_at) / RFU CDKN2B (11736163_a_at) / Fold change /veh CDKN2B (11736163_a_at) / RFU PRF1 (11729649_at) / Fold change /veh PRF1 (11729649_at) / RFU, ZNF638 /// ZNF638-IT1 / Fold change vs veh, ZNF638 /// ZNF638-IT1 / RFU, PANK3 / Fold change vs veh, PANK3 / RFU, SH3YL1 / Fold change vs veh, SH3YL1 / RFU, ZEB2 / Fold change vs veh, ZEB2 / RFU, NRIP1 / Fold change vs veh, NRIP1 / RFU, PTTG1IP / Fold change vs veh, PTTG1IP / RFU, CAPN2 / Fold change vs veh, CAPN2 / RFU, MED14 / Fold change vs veh, MED14 / RFU, SNORA58 / Fold change vs veh, SNORA58 / RFU, C1orf63 / Fold change vs veh, C1orf63 / RFU, LRRFIP1 / Fold change vs veh, LRRFIP1 / RFU, NDUFAF7 / Fold change vs veh, NDUFAF7 / RFU, SLC12A2 / Fold change vs veh, SLC12A2 / RFU, IBTK / Fold change vs veh, IBTK / RFU, ESF1 / Fold change vs veh, ESF1 / Fold change vs veh, TMEM50B / RFU, TAOK1 / Fold change vs veh, TAOK1 / RFU, ACBD3 / Fold change vs veh, ACBD3 / RFU, TMA16 / Fold change vs veh, TMA16 / RFU, RWDD3 / Fold change vs veh, RWDD3 / RFU, BCAT1 / Fold change vs veh, BCAT1 / RFU, EDEM3 / Fold change vs veh, EDEM3 / RFU, TMEM33 / Fold change vs veh, TMEM33 / RFU, WDR75 / Fold change vs veh, WDR75 / RFU, AHCTF1 / Fold change vs veh, AHCTF1 / RFU, TFRC / Fold change vs veh, TFRC / RFU, ZDHHC17 / Fold change vs veh, ZDHHC17 / RFU, NOM1 / Fold change vs veh, NOM1 / RFU, ARL8B / Fold change vs veh, ARL8B / RFU, ZBTB11 / Fold change vs veh, ZBTB11 / RFU, TAMM41 / Fold change vs veh, TAMM41 / RFU, KIAA1704 /// LOC100996395 / Fold change vs veh, KIAA1704 /// LOC100996395 / RFU, ING1 / Fold change vs veh, ING1 / RFU, TRMT61B / Fold change vs veh, TRMT61B / RFU, FUBP3 / Fold change vs veh, FUBP3 / RFU, TP53 / Fold change vs veh, TP53 / RFU, TNKS2 / Fold change vs veh, TNKS2 / RFU, ZFP14 / Fold change vs veh, ZFP14 / RFU, ACTR2 / Fold change vs veh, ACTR2 / RFU, PPP3R1 / Fold change vs veh, PPP3R1 / RFU, PIK3R1 / Fold change vs veh, PIK3R1 / RFU, HNRNPA1 / Fold change vs veh, HNRNPA1 / RFU, RNF170 / Fold change vs veh, RNF170 / RFU, ZNF28 / Fold change vs veh, ZNF28 / RFU, RNGTT / Fold change vs veh, RNGTT / RFU, OGT / Fold change vs veh, OGT / RFU, BRD1 / Fold change vs veh, BRD1 / RFU, MARS / Fold change vs veh, MARS / RFU, ZNF655 / Fold change vs veh, ZNF655 / RFU, FAHD1 / Fold change vs veh, FAHD1 / RFU, BDP1 / Fold change vs veh, BDP1 / RFU, LRRCC1 / Fold change vs veh, LRRCC1 / RFU, ARID1A / Fold change vs veh, ARID1A / RFU, ZNF146 / Fold change vs veh, ZNF146 / RFU, ZNF330 / Fold change vs veh, ZNF330 / RFU, GPN3 / Fold change vs veh, GPN3 / RFU, C9orf123 / Fold change vs veh, C9orf123 / RFU, N4BP2L2 / Fold change vs veh, N4BP2L2 / RFU, ARFIP1 / Fold change vs veh, ARFIP1 / RFU, FAM179B / Fold change vs veh, FAM179B / RFU, BCL10 / Fold change vs veh, BCL10 / RFU, UHRF1BP1L / Fold change vs veh, UHRF1BP1L / RFU, BET1 / Fold change vs veh, BET1 / RFU, CNOT2 / Fold change vs veh, CNOT2 / RFU, ZNF268 / Fold change vs veh, ZNF268 / Fold change vs veh, ZNF507 / RFU, DGCR2 / Fold change vs veh, DGCR2 / RFU, WDSUB1 / Fold change vs veh, WDSUB1 / Fold change vs veh, HSP90B1 /// MIR3652 / RFU, ADSS / Fold change vs veh, ADSS / RFU, GK / Fold change vs veh, GK / RFU, ZNF148 / Fold change vs veh, ZNF148 / RFU, TAF9 / Fold change vs veh, TAF9 / RFU, SLC1A5 / Fold change vs veh, SLC1A5 / RFU, SLMO2 / Fold change vs veh, SLMO2 / RFU, ABCC4 / Fold change vs veh, ABCC4 / RFU, LOC101060439 /// RAP1B / Fold change vs veh, LOC101060439 /// RAP1B / RFU, RFX7 / Fold change vs veh, RFX7 / RFU, GTPBP10 / Fold change vs veh, GTPBP10 / RFU, CNEP1R1 / Fold change vs veh, CNEP1R1 / RFU, BIVM-ERCC5 /// ERCC5 / Fold change vs veh, BIVM-ERCC5 /// ERCC5 / RFU, ILF3 / Fold change vs veh, ILF3 / RFU 11762660_at / Fold change /veh 11762660_at / RFU VCAN (11757783_s_at) / Fold change /veh VCAN (11757783_s_at) / RFU DDX43 (11728927_at) / Fold change /veh DDX43 (11728927_at) / RFU KRT8 (11758188_x_at) / Fold change /veh KRT8 (11758188_x_at) / RFU NKD1 (11759106_at) / Fold change /veh NKD1 (11759106_at) / RFU SRD5A1 (11742802_a_at) / Fold change /veh SRD5A1 (11742802_a_at) / RFU TPSAB1 /// TPSB2 (11721975_s_at) / Fold change /veh TPSAB1 /// TPSB2 (11721975_s_at) / RFU GSTM3 (11746129_a_at) / Fold change /veh GSTM3 (11746129_a_at) / RFU IL23R (11737362_x_at) / Fold change /veh IL23R (11737362_x_at) / RFU TMEM51 (11727254_a_at) / Fold change /veh TMEM51 (11727254_a_at) / RFU PIWIL2 (11732686_x_at) / Fold change /veh PIWIL2 (11732686_x_at) / RFU ORM1 (11744905_x_at) / Fold change /veh ORM1 (11744905_x_at) / RFU CCDC152 (11743942_at) / Fold change /veh CCDC152 (11743942_at) / RFU ECM1 (11717891_a_at) / Fold change /veh ECM1 (11717891_a_at) / RFU IL23R (11748794_a_at) / Fold change /veh IL23R (11748794_a_at) / RFU TNFAIP8L3 (11732012_x_at) / Fold change /veh TNFAIP8L3 (11732012_x_at) / RFU MBOAT4 (11741988_at) / Fold change /veh MBOAT4 (11741988_at) / RFU 11764193_at / Fold change /veh 11764193_at / RFU TMEM53 (11763286_at) / Fold change /veh TMEM53 (11763286_at) / RFU MAGEB2 (11727129_at) / Fold change /veh MAGEB2 (11727129_at) / RFU TMEM200A (11744735_a_at) / Fold change /veh TMEM200A (11744735_a_at) / RFU CCDC152 (11751479_a_at) / Fold change /veh CCDC152 (11751479_a_at) / RFU FAM211A (11726209_a_at) / Fold change /veh FAM211A (11726209_a_at) / RFU RGS16 (11746705_a_at) / Fold change /veh RGS16 (11746705_a_at) / RFU VCAN (11755009_s_at) / Fold change /veh VCAN (11755009_s_at) / RFU RHOB (11743442_s_at) / Fold change /veh RHOB (11743442_s_at) / RFU RGS16 (11720943_a_at) / Fold change /veh RGS16 (11720943_a_at) / RFU RGS16 (11720944_at) / Fold change /veh RGS16 (11720944_at) / RFU, VPS4B / Fold change vs veh, VPS4B / RFU, CREB1 / Fold change vs veh, CREB1 / RFU, DNAJC13 / Fold change vs veh, DNAJC13 / RFU, GNAQ / Fold change vs veh, GNAQ / RFU, CDK5R1 / Fold change vs veh, CDK5R1 / RFU, ZRANB3 / Fold change vs veh, ZRANB3 / RFU, CUL4A / Fold change vs veh, CUL4A / RFU, CCNY / Fold change vs veh, CCNY / RFU, UFL1 / Fold change vs veh, UFL1 / RFU, COG3 / Fold change vs veh, COG3 / RFU, DIAPH2 / Fold change vs veh, DIAPH2 / RFU, SKA2 / Fold change vs veh, SKA2 / RFU, AFF3 / Fold change vs veh, AFF3 / RFU, LMF1 / Fold change vs veh, LMF1 / RFU, IPO11 / Fold change vs veh, IPO11 / RFU, DFFB / Fold change vs veh, DFFB / RFU, FOXP1 / Fold change vs veh, FOXP1 / RFU, CARD8 / Fold change vs veh, CARD8 / RFU, STRN3 / Fold change vs veh, STRN3 / RFU, ADK / Fold change vs veh, ADK / RFU, RASSF2 / Fold change vs veh, RASSF2 / RFU, WIPF1 / Fold change vs veh, WIPF1 / RFU, LARP1B / Fold change vs veh, LARP1B / RFU, RASA1 / Fold change vs veh, RASA1 / RFU, RB1 / Fold change vs veh, RB1 / RFU, PPFIA1 / Fold change vs veh, PPFIA1 / RFU, MAT2A / Fold change vs veh, MAT2A / RFU, CCT5 / Fold change vs veh, CCT5 / RFU, WDR92 / Fold change vs veh, WDR92 / RFU, CUX1 / Fold change vs veh, CUX1 / RFU, TTC7A / Fold change vs veh, TTC7A / RFU, TMEM135 / Fold change vs veh, TMEM135 / RFU, DEPTOR / Fold change vs veh, DEPTOR / RFU, CPM / Fold change vs veh, CPM / RFU, DNAJB6 / Fold change vs veh, DNAJB6 / RFU, CACNA2D3 / Fold change vs veh, CACNA2D3 / RFU, DTX4 / Fold change vs veh, DTX4 / RFU, TFCP2 / Fold change vs veh, TFCP2 / RFU, GMCL1 /// GMCL1P1 / Fold change vs veh, GMCL1 /// GMCL1P1 / RFU, AEBP2 / Fold change vs veh, AEBP2 / RFU, SNHG1 /// SNORD22 /// SNORD25 /// SNORD26 /// SNORD27 /// SNORD28 /// SNORD29 /// SNORD31 / Fold change vs veh, SNHG1 /// SNORD22 /// SNORD25 /// SNORD26 /// SNORD27 /// SNORD28 /// SNORD29 /// SNORD31 / Fold change (Aza/veh), C12orf56 (ProbeSet 11735607_a_at) / Fold change (ACY-1035/veh), C12orf56 (ProbeSet 11735607_a_at) / Fold change (Aza/veh), FGFR1OP (ProbeSet 11751329_s_at) / Fold change (ACY-1035/veh), FGFR1OP (ProbeSet 11751329_s_at) / Fold change (Aza/veh), VPS36 (ProbeSet 11739960_a_at) / Fold change (ACY-1035/veh), VPS36 (ProbeSet 11739960_a_at) / RFU SYPL1 (11715823_x_at) / Fold change /veh SYPL1 (11715823_x_at) / RFU IGFBP7 (11715501_s_at) / Fold change /veh IGFBP7 (11715501_s_at) / RFU REEP3 (11722064_at) / Fold change /veh REEP3 (11722064_at) / RFU IGLL1 (11728026_x_at) / Fold change /veh IGLL1 (11728026_x_at): dose or concentration left out as unconfirmed
Conditions: ProbeSet 11732165_x_at; LIST D

SMILES: Nc1ccc(-c2cccs2)cc1NC(=O)c1ccc2c(c1)cc(C1CC1)n2CCN1CCOCC1 [ACY-1035]
- Fold change vs veh, LMF1: 0.85

Reference: PMC5218480 (PLoS ONE, 2017)
